In experiment [1] the target is p38-alpha (Homo sapiens) (UniProt Q16539). The settings on record: cited from earlier work.
For experiment [2] the target is unchanged. The following applies: cited from earlier work. The source holds these as a separate data set.
Experiment [3] deals with T1, p38 (phosphorylation of MK2) (Homo sapiens, UniProt Q16539).
T1 construct: made in house
Briefly: Single substrate assay, phospho-MK2 readout (MSD). The format is biochemical. The following applies: MK2 only; measured at 30 min; ± standard error.
Protocol: (§1) In each case, the degree of phosphorylation serves as a readout of the activity of p38 for its respective substrate.
(§2) The ability of active p38 to phosphorylate ATF2, MK2 or both was tested in a biochemical assay. Reagents were added in the following order: compound, substrate(s), ATP, p38 for a final reaction volume of 40 ul in low protein binding 96-well plates (Immulon-1B). […] Reactions were performed in buffer containing 20 mM HEPES pH 7.5, 10 mM MgCl2, 0.01% BSA, 0.0005% Tween-20, 2% DMSO and 0.1 mM DTT. Reactions were quenched with 40 ul of buffer containing 50 mM HEPES pH 7.5, 30 mM EDTA following different incubation times. Phosphorylated ATF2 and phosphorylated MK2 were assayed as described below. Compounds were diluted in DMSO (Sigma).
Phospho-MK2 was measured with the MSD platform using an in-house assay. […] Plates were blocked with 3% MSD Blocker A in MSD Tris Wash Buffer for at least 1 hr at RT. […] Plates were incubated for > 3 hr at RT, washed 4× with 150 ul MSD Tris Wash Buffer and read on the Meso-Scale Discovery Sector imager using 2× MSD Read Buffer T.

Experiment [4] deals with T2, p38 (phosphorylation of ATF2) (Homo sapiens, UniProt Q16539).
T2 construct: made in house
T2 sequence (Q16539 whole entry): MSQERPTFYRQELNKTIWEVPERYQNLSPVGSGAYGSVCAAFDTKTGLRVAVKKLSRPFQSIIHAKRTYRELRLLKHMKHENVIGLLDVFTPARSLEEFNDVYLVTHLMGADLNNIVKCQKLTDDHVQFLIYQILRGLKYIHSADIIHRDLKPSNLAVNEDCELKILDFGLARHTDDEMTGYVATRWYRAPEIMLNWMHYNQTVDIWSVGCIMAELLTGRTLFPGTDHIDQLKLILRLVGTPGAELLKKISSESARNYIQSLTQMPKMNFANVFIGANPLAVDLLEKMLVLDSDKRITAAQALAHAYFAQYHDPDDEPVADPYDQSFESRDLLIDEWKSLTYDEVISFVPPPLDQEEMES
Put plainly: Single substrate assay, phospho-ATF2 readout (MSD). The format is biochemical.
Protocol: as §1, §2
Phospho-ATF2 was measured with the Meso-Scale Discovery (MSD) platform using an in-house assay. […] Plates were blocked with 3% MSD Blocker A in MSD Tris Wash Buffer for at least 1 hr at RT. […] Plates were incubated for > 3 hr at RT, washed 4× with 150 ul MSD Tris Wash Buffer and read on the Meso-Scale Discovery Sector imager using 2× MSD Read Buffer T.

Experiment [5] deals with T3, p38 (phosphorylation of MK2 in presence of ATF2) (Homo sapiens, UniProt Q16539).
T3 construct: made in house
T3 sequence (Q16539 whole entry): as above
Put plainly: ATF2/MK2 dual substrate assay, phospho-MK2 readout (MSD). The format is biochemical. The settings on record: 0.5 nM p38, 100 nM ATF2, 10 nM MK2, 50 uM ATP; measured at 30 min; ± standard error.
Protocol: (§3) To this end, we designed a dual-substrate assay in which p38 could simultaneously phosphorylate MK2 and/or ATF2. The assay conditions chosen were 0.5 nM p38, 100 nM ATF2, 10 nM MK2, 50 uM ATP. As with the single substrate assay, MK2 phosphorylation was assayed at 30 min and ATF2 phosphorylation was assayed at 120 min to ensure that each measurement was within the linear range of the assay. ATP levels were measured at the end of the assay, to confirm that it was not being depleted.
as §2
Phospho-MK2 was measured with the MSD platform using an in-house assay. […] Plates were incubated for > 3 hr at RT, washed 4× with 150 ul MSD Tris Wash Buffer and read on the Meso-Scale Discovery Sector imager using 2× MSD Read Buffer T.

Experiment [6] addresses T4, p38 (phosphorylation of ATF2 in presence of MK2) (Homo sapiens, UniProt Q16539).
T4 construct: made in house
Briefly: ATF2/MK2 dual substrate assay, phospho-ATF2 readout (MSD). The format is biochemical.
Protocol: as §3, §2
Phospho-ATF2 was measured with the Meso-Scale Discovery (MSD) platform using an in-house assay. […] Plates were incubated for > 3 hr at RT, washed 4× with 150 ul MSD Tris Wash Buffer and read on the Meso-Scale Discovery Sector imager using 2× MSD Read Buffer T.

Experiment [7] concerns the target p38-alpha (MK2 phosphorylation). Set-up: method as in PMID 15362850. The following applies: read-out: KI, app, p38-alpha-dependent MK2 phosphorylation; cited from earlier work.
The target in experiment [8] is p38-alpha (ATF-2 phosphorylation). Set-up: method as in PMID 15362850. The following applies: read-out: KI, app, phosphorylation of ATF-2; cited from earlier work.
The next experiment concerns the target T5, p38 (Homo sapiens, UniProt Q16539).
T5 construct: made in house
Put plainly: ATP-p38 affinity (in-house measurement). The following applies: kinetic model parameter. The format is binding. The source says: In order to aid in the interpretation of the dual substrate assay, we developed a simple kinetic model of p38-mediated phosphorylation of two substrates: ATF2 and MK2 (diagrammed in Figure 3a). Since p38 has a single kinase domain and ATP binding site, we assumed that p38 can only act on a single substrate at a time. For each substrate, a random-order bi-substrate (substrate + ATP) reaction mechanism was assumed. Active p38 can reversibly bind ATP, with affinity KD, ATP and ATP binding is independent of further complex formation. Active p38 (ATP bound and unbound) can reversibly bind to ATF2 or MK2 to form complexes p38-ATF2 or p38-MK2, respectively. Each complex undergoes an irreversible catalysis step to form products phospho-ATF2 (and ADP) or phospho-MK2 (and ADP). The model equations are a set of ordinary differential equations written in terms of mass-action kinetics. For the case where only one substrate is present, this model reduces to the single substrate assay.

Like-named read-outs stand apart in the source and are kept apart here.

T4 sequence (Q16539 whole entry): as above
Chain of p38-alpha (Homo sapiens) (Q16539 2-360): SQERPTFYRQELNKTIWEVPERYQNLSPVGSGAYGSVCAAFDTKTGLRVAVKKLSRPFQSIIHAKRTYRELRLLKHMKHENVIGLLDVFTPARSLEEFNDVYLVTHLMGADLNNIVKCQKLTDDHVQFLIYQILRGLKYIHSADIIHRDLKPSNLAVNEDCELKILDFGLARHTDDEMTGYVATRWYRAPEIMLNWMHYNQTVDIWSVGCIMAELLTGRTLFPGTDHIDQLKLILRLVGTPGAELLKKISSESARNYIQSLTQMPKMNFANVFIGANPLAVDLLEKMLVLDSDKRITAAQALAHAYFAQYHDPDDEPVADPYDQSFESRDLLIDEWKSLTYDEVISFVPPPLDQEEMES
T1 sequence (Q16539 whole entry): as the sequence (Q16539 whole entry) above
T5 sequence (Q16539 whole entry): as above
Chain of MK2 (P49137 whole entry): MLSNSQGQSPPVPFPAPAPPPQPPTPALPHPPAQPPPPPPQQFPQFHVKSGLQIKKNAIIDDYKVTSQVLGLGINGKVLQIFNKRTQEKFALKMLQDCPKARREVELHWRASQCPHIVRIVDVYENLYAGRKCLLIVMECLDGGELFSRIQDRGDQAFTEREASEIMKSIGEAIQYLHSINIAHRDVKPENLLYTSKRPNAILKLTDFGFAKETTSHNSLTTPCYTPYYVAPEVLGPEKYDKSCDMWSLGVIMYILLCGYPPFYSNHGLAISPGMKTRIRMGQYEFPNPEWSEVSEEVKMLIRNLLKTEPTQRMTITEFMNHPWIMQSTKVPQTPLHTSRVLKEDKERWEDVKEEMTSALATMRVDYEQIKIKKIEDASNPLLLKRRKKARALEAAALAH
Chain of ATF2 (P15336 whole entry): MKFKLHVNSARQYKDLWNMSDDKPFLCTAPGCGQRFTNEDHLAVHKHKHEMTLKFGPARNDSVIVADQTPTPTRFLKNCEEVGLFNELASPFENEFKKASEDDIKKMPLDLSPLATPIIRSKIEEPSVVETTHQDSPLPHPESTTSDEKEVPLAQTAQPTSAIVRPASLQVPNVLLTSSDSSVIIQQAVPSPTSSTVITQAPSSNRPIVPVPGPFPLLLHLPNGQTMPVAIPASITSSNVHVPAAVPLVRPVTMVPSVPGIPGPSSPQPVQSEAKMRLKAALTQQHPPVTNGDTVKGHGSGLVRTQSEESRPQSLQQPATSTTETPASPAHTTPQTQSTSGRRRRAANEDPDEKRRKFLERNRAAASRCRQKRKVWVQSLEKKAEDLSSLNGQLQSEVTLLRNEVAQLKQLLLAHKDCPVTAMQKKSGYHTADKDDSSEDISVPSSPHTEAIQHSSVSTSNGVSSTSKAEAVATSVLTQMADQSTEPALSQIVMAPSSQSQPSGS

For MK2 (from UniProt P49137), the Kd (commonly the equilibrium constant for the complex coming apart) with p38-alpha (Homo sapiens) [1] was 0.02 µM.

For ATF2 (from UniProt P15336), the dissociation constant Kd in the experiment with p38-alpha (Homo sapiens) [2] is 38 µM.

Consider `O=C(CCCc1ccc(-c2ccccc2F)cc1)Nc1ccc(O)cc1` [CMPD1], for which the IC50 (usually the concentration needed to halve the response being measured) in experiment [3] was 23.4 ± 1.9 µM; in experiment [4] (ATF2 only, measured at 120 min, ± standard error) it was above 400 µM; in [5], 41 ± 2.2 µM; in experiment [6] (0.5 nM p38, 100 nM ATF2, 10 nM MK2, 50 uM ATP, measured at 120 min, ± standard error) it was 27 ± 16 µM. Moreover, the “substrate selectivity = (ATF2 IC50)/(MK2 IC50), single substrate assay” value in [4] (ratio of single substrate assay IC50s) is above 17. Also, the “substrate selectivity = (ATF2 IC50)/(MK2 IC50), dual substrate assay” value in [6] (ratio of dual substrate assay IC50s) came out at 0.66. For the same compound, the Ki in [7] was 0.33 µM; in experiment [8], above 20 µM.

At p38, `Nc1ncnc2c1ncn2[C@@H]1O[C@H](COP(=O)(O)OP(=O)(O)OP(=O)(O)O)[C@@H](O)[C@H]1O` [ATP] displayed a Kd of 67 µM.

These data come from PMC2850882, “Two additive mechanisms impair the differentiation of 'substrate-selective' p38 inhibitors from classical p38 inhibitors in vitro” (BMC Systems Biology, 2010).
